Test results reported in patent US12318372B2, “Formulations with enhanced SN-38 solubility and oral absorption” (TaiRx Inc., priority 2021, dated 2025).
Values joined by “and” are separate entries in the source; they are usually repeats but may differ in a detail not shown here. Identical values can stand only once. “Also recorded” adds a separate entry of the source. Counter-ions that a name gives are not always drawn. Like-named read-outs stand apart in the source and are kept apart here.

Assays:
[1] = tested on: HCT-116 colon cancer cells; assay: Study #1 orthotopic HCT-116 xenograft efficacy; assay type: in vivo, mouse
[2] = cited from earlier work
[3] = guinea pig; cited from earlier work
[4] = cited from earlier work; remark: listed apart in the source
[5] = cited from earlier work; remark: listed apart in the source
[6] = rabbit; cited from earlier work
[7] = tested on: HCT-116 colon cancer cells; assay: Study #2 follow up orthotopic HCT-116 xenograft efficacy; assay type: in vivo, female BALB/c nude mice; settings: 25.9 mg/kg i.v. BIW x 6 doses
[8] = tested on: HCT-116 colon cancer cells; assay type: in vivo; settings: 25.9 mg/kg i.v. Q4D x 3 wks
[9] = SN-38 solubility at saturation in excipients and excipient mixtures (HPLC); assay type: physicochemical
Method: The saturation is obtained by adding gradually an excess of active ingredient (maximum target being 50 mg/mL) to a given volume of test medium. […]
The supernatant is then isolated, diluted in a solvent mixture allowing its injection into the chromatographic system. The concentration in solution for each medium is determined by HPLC (external standardization).

[10] = SN-38 content of NMP/VitE TPGS/polymer gels (HPLC); assay type: physicochemical
Method: For HPC, both above tested percentages (2 and 5%) will be further tested with SN-38. […] This starting solution is prepared by over stirred 24 hours at 20° C. and then filtered before being used for into polymer solubilization.
The three polymers of interest (HPMC E4M, HPMC E10M, and HPC Klucel) are weighed (according to the above selected percentages) and added for solubilization and under stirring onto the SN-38 solution in NMP/VitE TPGS 50/20 mixture. After 24 h stirring at 20° C., the 3 samples are visually observed, and their SN-38 content is assessed by HPLC (after dilution in an appropriate solvent).

[11] = times more cytotoxic than CPT-11; cited from earlier work
[12] = Visual SN-38 solubilization in PLGA/NMP mixtures; assay type: physicochemical; settings: PLGA (75:25):NMP mixture at mass ratio 1:2
Method: SN-38 solubilization in these two PLGA/NMP solution mixtures is then tested with a SN-38 starting concentration of 20 mg/g and then decreasing the tested concentration if needed. Table 13 presents the results of macroscopic observation of tentative SN-38 solubilization in PLGA/NMP mixtures

For `CCc1c2c(nc3ccc(OC(=O)N4CCC(N5CCCCC5)CC4)cc13)-c1cc3c(c(=O)n1C2)COC(=O)[C@]3(O)CC` [CPT-11, irinotecan], the “Tumor weights on Day 34 Geometric mean” value ([1]; 50 mg/kg i.p. Q4D x 3 wks) is given as 24.9 mg, the “Tumor weights on Day 34 TGI %” value ([1]; 50 mg/kg i.p. Q4D x 3 wks) is given as 85% and the irinotecan remained unhydrolyzed ([2]; humans, at the end of a 24-hour infusion) is given as 33-66%. The “bioconversion to SN-38” value ([2]; in humans) was about 5%, the antigenic potential [3] was “has shown antigenic potential” and the dogs showing emesis ([4]; 20 mg/kg i.v.) was “five of six”. The mortality ([4]; dogs, 40 mg/kg) was “the two dogs died 3 and 6 minutes later”, the time to emesis ([4]; dogs, 40 mg/kg) was 1 min and the aqueous solubility ([5]; HCl salt, in water) was 25 mM. The antigenic potential [6] was “has shown antigenic potential”.

With `CCc1c2c(nc3ccc(OC(=O)N4CCC(N5CCCCC5)CC4)cc13)-c1cc3c(c(=O)n1C2)COC(=O)[C@]3(O)CC` [Irinotecan HCL trihydrate, Irinotecan HCL Trihydrate] the “Tumor weights on Day 34 Geometric mean” value ([1]; 20.8 mg/kg i.v. BIW x 3 wks) was 171.0 mg, the “Tumor weights on Day 34 TGI %” value ([1]; 20.8 mg/kg i.v. BIW x 3 wks) was 78% and the “Tumor weights on Day 32 Geometric mean” value [7] was 134.0 mg. For the same molecule, the “Tumor weights on Day 32 TGI %” value [7] was 84%, the “Tumor weights on Day 34 Geometric mean” value [8] was 428.6 mg and the “Tumor weights on Day 34 TGI %” value [8] was 60%.

For `CCc1c2c(nc3ccc(O)cc13)-c1cc3c(c(=O)n1C2)COC(=O)[C@]3(O)CC` [SN-38, 7-Ethyl-10-hydroxy-camptothecin], the antigenic potential [3] is listed as “no antigenic potential”, the emesis or nausea ([4]; dogs, 11.6 mg/kg i.v.) is listed as “no emesis or nausea was noted” and the SN-38 solubility ([9]; in Cremophor EL at 30% in water, 20° C.) is listed as 0.017 mg/g. The SN-38 solubility ([9]; in Labrafil M1944CS, 20° C.) was 0.054 mg/g, the “SN-38 solubility” value ([9]; in NMP/VitE TPGS (50/20 w/w), 20° C.) was 18.51 mg/g and the SN-38 solubility ([9]; in NMP/VitE TPGS/Capmul MCM/Tween 20 (50/20/10/20 w/w)) was 7.57 mg/g. For the same molecule, the “SN-38 solubility” value ([9]; in NMP/VitE TPGS/GELUCIRE (50/20/20), 20° C.) was 9.2 mg/g and 9.25 mg/g, the SN-38 solubility ([9]; in NMP/VitE TPGS/Isopropyl myristate/Solutol HS15 (50/20/10/20 w/w)) was 9.04 mg/g and the “SN-38 solubility” value ([9]; in NMP/VitE TPGS/KOLLIDON VA64 (50/20/20), 20° C.) was 15.6 mg/g and 15.65 mg/g. For the same molecule, the “SN-38 solubility” value ([9]; in NMP/VitE TPGS/LUTROL F127 (50/20/20), 25° C.) was 10.0 mg/g and 10.02 mg/g, the SN-38 solubility ([9]; in NMP/VitE TPGS/Labrafac Lipophile WL1349/Lauroglycol 90 (50/20/10/20 w/w)) was 2.76 mg/g and the SN-38 solubility ([9]; in NMP/VitE TPGS/Mygliol 812/Propylene glycol (50/20/10/20 w/w)) was 5.95 mg/g. The SN-38 solubility ([9]; in NMP, 24 h stirring at 20° C.) was 42 mg/g, the SN-38 solubility ([9]; in Propylene glycol, 20° C.) was 1.15 mg/g and the SN-38 solubility ([9]; in VitE TPGS at 20% in water, 20° C.) was “≈0.01 mg/g”. For the same molecule, the SN-38 solubility ([9]; in all other tested media (other than NMP, propylene glycol, Capmul MCM)) was “lower than 0.054 mg/g”, the “SN-38 content calculated by HPLC” value ([10]; 2% HPC (vs NMP) in NMP/VitE TPGS (50 w/20 w)) was 14.32 mg/g and the “SN-38 content calculated by HPLC” value ([10]; 4% HPMC E4M (vs NMP) in NMP/VitE TPGS (50 w/20 w)) was 14.03 mg/g. For the same molecule, the “SN-38 content calculated by HPLC” value ([10]; 4% HPMC E10M (vs NMP) in NMP/VitE TPGS (50 w/20 w)) was 14.00 mg/g, the “SN-38 content calculated by HPLC” value ([10]; 5% HPC (vs NMP) in NMP/VitE TPGS (50 w/20 w), 24 h stirring at 20° C.) was 13.95 mg/g and the “SN-38 precipitation on addition of gelling polymers” value ([10]; HPMC E4M, HPMC E10M or HPC added onto 15 mg/g SN-38 solution in NMP/VitE TPGS 50/20) was “No SN-38 precipitation is observed; also recorded: without precipitation of SN-38”. For the same molecule, the “SN-38 content calculated by HPLC” value ([10]; No polymer in NMP/VitE TPGS (50 w/20 w), filtered 15 mg/g starting solution) was 14.47 mg/g, the “cytotoxicity relative to CPT-11” value [11] was 200-2000 times and the solubility in water ([5]; Zhang et al. 2004) was under 40 µg/mL. The “solubility (S)” value ([5]; background statement b6) was under 10 µg/mL and the “Concentration at which SN-38 is soluble” value [12] was 10 mg/g.
